Laboratory results published in PubChem BioAssay AID248 (DTP/NCI, 2004).
Several values for one entry are separate records, joined by “and”; a condition that tells them apart may be missing. Equal values may be shown once. Inconclusive results and toxic doses are left out. Cut-off read from the data, not from the text of the source: active = T/C of 150% or more; inactive = T/C below 125%.

Tested on: L1210 leukemia ip in BDF1 mice, survival T/C
Test: NCI In Vivo Anticancer Drug Screen. Data for tumor model L1210 Leukemia (intraperitoneal) in B6D2F1 (BDF1) mice
Details: endpoint: mean survival time, higher = longer survival
Method in brief: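 Read-out is survival time, reported as the treated-group measurement over the vehicle-control measurement.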

[1] = dose: 50.0 mg/kg/injection, schedule: Q04DX002 (ip), vehicle: Klucel (hydroxypropylcellulose) (HPC)
[2] = dose: 100.0 mg/kg/injection, schedule: Q04DX002 (ip), vehicle: Klucel (hydroxypropylcellulose) (HPC)
[3] = dose: 10.0 mg/kg/injection, schedule: Q01DX001 (ip), vehicle: saline
[4] = dose: 100.0 mg/kg/injection, schedule: Q01DX009 (ip), vehicle: Klucel (hydroxypropylcellulose) (HPC)
[5] = dose: 200.0 mg/kg/injection, schedule: Q01DX009 (ip), vehicle: Klucel (hydroxypropylcellulose) (HPC)
[6] = dose: 100.0 mg/kg/injection, schedule: Q04DX003 (ip), vehicle: saline
[7] = dose: 200.0 mg/kg/injection, schedule: Q04DX003 (ip), vehicle: saline
[8] = dose: 400.0 mg/kg/injection, schedule: Q04DX003 (ip), vehicle: saline
[9] = dose: 100.0 mg/kg/injection, schedule: Q01DX001 (ip), vehicle: carboxymethylcellulose (CMC)
[10] = dose: 200.0 mg/kg/injection, schedule: Q01DX001 (ip), vehicle: carboxymethylcellulose (CMC)
[11] = dose: 400.0 mg/kg/injection, schedule: Q01DX001 (ip), vehicle: carboxymethylcellulose (CMC)
[12] = dose: 100.0 mg/kg/injection, schedule: Q01DX001 (ip), vehicle: saline
[13] = dose: 200.0 mg/kg/injection, schedule: Q01DX001 (ip), vehicle: saline
[14] = dose: 100.0 mg/kg/injection, schedule: Q04DX003 (ip), vehicle: Klucel (hydroxypropylcellulose) (HPC)
[15] = dose: 200.0 mg/kg/injection, schedule: Q04DX003 (ip), vehicle: Klucel (hydroxypropylcellulose) (HPC)
[16] = dose: 400.0 mg/kg/injection, schedule: Q01DX009 (ip), vehicle: Klucel (hydroxypropylcellulose) (HPC)
[17] = dose: 400.0 mg/kg/injection, schedule: Q04DX003 (ip), vehicle: Klucel (hydroxypropylcellulose) (HPC)

Measured: T/C

CCSCCOP(=O)(N(C)C)N(C)C
inactive: dose: 25.0 mg/kg/injection, schedule: Q04DX002 (ip), vehicle: Klucel (hydroxypropylcellulose) (HPC) 96 % of control | [1] 96 % of control | [2] 93 % of control and 98 % of control

C1CN2CCC1CC2
inactive: [3] 93 % of control | dose: 50.0 mg/kg/injection, schedule: Q01DX009 (ip), vehicle: saline with Tween-80 98 % of control | dose: 100.0 mg/kg/injection, schedule: Q01DX009 (ip), vehicle: saline with Tween-80 97 % of control | dose: 100.0 mg/kg/injection, schedule: Q04DX003 (ip), vehicle: saline with Tween-80 106 % of control | dose: 200.0 mg/kg/injection, schedule: Q04DX003 (ip), vehicle: saline with Tween-80 93 % of control

O=C(c1ccccc1)c1cccc2ccccc12
inactive: [1] 109 % of control | [2] 105 % of control | dose: 200.0 mg/kg/injection, schedule: Q04DX002 (ip), vehicle: Klucel (hydroxypropylcellulose) (HPC) 105 % of control | dose: 400.0 mg/kg/injection, schedule: Q04DX002 (ip), vehicle: Klucel (hydroxypropylcellulose) (HPC) 109 % of control

c1ccc([P+](c2ccccc2)(c2ccccc2)c2ccccc2)cc1
inactive: dose: 2.5 mg/kg/injection, schedule: Q01DX009 (ip), vehicle: saline 110 % of control | dose: 2.5 mg/kg/injection, schedule: Q04DX003 (ip), vehicle: saline 103 % of control | dose: 5.0 mg/kg/injection, schedule: Q01DX001 (ip), vehicle: saline 110 % of control | dose: 5.0 mg/kg/injection, schedule: Q01DX009 (ip), vehicle: saline 114 % of control | dose: 5.0 mg/kg/injection, schedule: Q04DX003 (ip), vehicle: saline 106 % of control | [3] 94 % of control | dose: 10.0 mg/kg/injection, schedule: Q04DX003 (ip), vehicle: saline 109 % of control

CSc1nc(C)c(Cl)c(SC)n1
inactive: dose: 50.0 mg/kg/injection, schedule: Q01DX009 (ip), vehicle: Klucel (hydroxypropylcellulose) (HPC) 101 % of control | [4] 117 % of control | [5] 97 % of control

COc1ccc(N2C(=O)CC(Sc3ccccc3N)C2=O)cc1 (stereo unspecified)
inactive: dose: 100.0 mg/kg/injection, schedule: Q01DX009 (ip), vehicle: other 102 % of control | [6] 94 % of control | dose: 200.0 mg/kg/injection, schedule: Q01DX009 (ip), vehicle: other 91 % of control | [7] 90 % of control | dose: 400.0 mg/kg/injection, schedule: Q01DX009 (ip), vehicle: other 91 % of control | [8] 90 % of control

COc1cc(CCO)cc(OC)c1
inactive: [9] 86 % of control | [10] 86 % of control

CCCCc1cccc(N2C(N)=NC(N)=NC2(C)C)c1
inactive: dose: 12.5 mg/kg/injection, schedule: Q01DX001 (ip), vehicle: saline 103 % of control | dose: 50.0 mg/kg/injection, schedule: Q01DX001 (ip), vehicle: saline 89 % of control

CCOC(=O)C1c2cc3c(cc2C(c2cc(OC)c(OC)c(OC)c2)C2C(=O)OCC12)OCO3 (stereo unspecified)
inactive: dose: 2.5 mg/kg/injection, schedule: Q01DX009 (ip), vehicle: Klucel (hydroxypropylcellulose) (HPC) 112 % of control | dose: 3.0 mg/kg/injection, schedule: Q01DX009 (ip), vehicle: Klucel (hydroxypropylcellulose) (HPC) 124 % of control | dose: 4.0 mg/kg/injection, schedule: Q01DX009 (ip), vehicle: Klucel (hydroxypropylcellulose) (HPC) 105 % of control | dose: 6.0 mg/kg/injection, schedule: Q01DX009 (ip), vehicle: Klucel (hydroxypropylcellulose) (HPC) 113 % of control | dose: 9.0 mg/kg/injection, schedule: Q01DX009 (ip), vehicle: Klucel (hydroxypropylcellulose) (HPC) 115 % of control | dose: 12.5 mg/kg/injection, schedule: Q01DX009 (ip), vehicle: Klucel (hydroxypropylcellulose) (HPC) 88 % of control

CCN1C(=O)CC(SC2CC(=O)N(CC)C2=O)C1=O (stereo unspecified)
inactive: [9] 100 % of control | [10] 94 % of control | [11] 94 % of control

C=C1OC(=O)C(=O)N1CC(=O)O
inactive: [12] 103 % of control | [13] 106 % of control

CCOC(=O)CNN
inactive: dose: 4.0 mg/kg/injection, schedule: Q01DX009 (ip), vehicle: saline 93 % of control | dose: 8.0 mg/kg/injection, schedule: Q01DX009 (ip), vehicle: saline 108 % of control | dose: 16.0 mg/kg/injection, schedule: Q01DX009 (ip), vehicle: saline 103 % of control | dose: 28.0 mg/kg/injection, schedule: Q01DX001 (ip), vehicle: saline 101 % of control | dose: 56.0 mg/kg/injection, schedule: Q01DX001 (ip), vehicle: saline 108 % of control | dose: 112.0 mg/kg/injection, schedule: Q01DX001 (ip), vehicle: saline 114 % of control

COc1ccc(/C=C(\CC(=O)O)C(=O)O)cc1OC
inactive: [4] 92 % of control | [14] 96 % of control | [5] 95 % of control | [15] 91 % of control | [16] 95 % of control | [17] 102 % of control

O=C(NCCl)Nc1ccccc1
inactive: dose: 25.0 mg/kg/injection, schedule: Q04DX002 (ip), vehicle: saline 106 % of control | dose: 50.0 mg/kg/injection, schedule: Q04DX002 (ip), vehicle: saline 106 % of control | dose: 100.0 mg/kg/injection, schedule: Q04DX002 (ip), vehicle: saline + alcohol 100 % of control | dose: 100.0 mg/kg/injection, schedule: Q04DX002 (ip), vehicle: saline 100 % of control

Cc1ccc(NC(=S)N2CCC(CCCC3CCN(C(=S)Nc4ccc(C)c(C)c4)CC3)CC2)cc1C
inactive: [4] 93 % of control | [14] 88 % of control | [5] 90 % of control | [15] 98 % of control | [16] 90 % of control | [17] 92 % of control

[N-]=[N+]=NCC1OC(n2cnc3c(NC=O)ncnc32)CC1C(=O)O (stereo unspecified)
inactive: dose: 50.0 mg/kg/injection, schedule: Q01DX001 (ip), vehicle: carboxymethylcellulose (CMC) 109 % of control | [9] 101 % of control | [10] 114 % of control | [11] 95 % of control

Cc1ccc(S(=O)(=O)CCCCCl)cc1
inactive: [12] 101 % of control | dose: 100.0 mg/kg/injection, schedule: Q01DX009 (ip), vehicle: saline 100 % of control | [6] 95 % of control | [13] 96 % of control | dose: 200.0 mg/kg/injection, schedule: Q01DX009 (ip), vehicle: saline 97 % of control | [7] 92 % of control | dose: 400.0 mg/kg/injection, schedule: Q01DX001 (ip), vehicle: saline 104 % of control | dose: 400.0 mg/kg/injection, schedule: Q01DX009 (ip), vehicle: saline 89 % of control | [8] 98 % of control

CN(C)C(=N)[Se]
inactive: dose: 6.25 mg/kg/injection, schedule: Q01DX009 (ip), vehicle: saline 97 % of control | dose: 12.5 mg/kg/injection, schedule: Q01DX009 (ip), vehicle: saline 92 % of control

O=C(OCCOCCOCCOC(=O)c1ccccc1)c1ccccc1
inactive: [4] 96 % of control | [14] 112 % of control | [5] 96 % of control | [15] 102 % of control | [16] 102 % of control | [17] 99 % of control
